Measured values from patent US10081662B2, “Modified relaxin B chain peptides” (The Florey Institute of Neuroscience and Mental Health, priority 2014, dated 2018).
Square brackets hold non-standard residues; d marks the D form. Peptide text beside a SMILES is read from it. hArg = N=C(N)NCCCC[C@H](N)C(=O)O; Agb = N=C(N)NCC[C@H](N)C(=O)O

Columns and labels:
RXFP1 [1] = target: T1, RXFP1 (Homo sapiens, UniProt Q9HBX9); experiment: cAMP reporter gene assay (pCRE β-galactosidase) in HEK-293T cells transfected with RXFP1; assay type: cell-based; conditions: HEK-293T cells co-transfected with RXFP1 and pCRE β-galactosidase reporter; n ≥ 3; read-out: RXFP1 cAMP pEC50 (converted)
T1 construct: expressed in transfected cells; host or cells: HEK-293T
T1 sequence (Q9HBX9 1-757): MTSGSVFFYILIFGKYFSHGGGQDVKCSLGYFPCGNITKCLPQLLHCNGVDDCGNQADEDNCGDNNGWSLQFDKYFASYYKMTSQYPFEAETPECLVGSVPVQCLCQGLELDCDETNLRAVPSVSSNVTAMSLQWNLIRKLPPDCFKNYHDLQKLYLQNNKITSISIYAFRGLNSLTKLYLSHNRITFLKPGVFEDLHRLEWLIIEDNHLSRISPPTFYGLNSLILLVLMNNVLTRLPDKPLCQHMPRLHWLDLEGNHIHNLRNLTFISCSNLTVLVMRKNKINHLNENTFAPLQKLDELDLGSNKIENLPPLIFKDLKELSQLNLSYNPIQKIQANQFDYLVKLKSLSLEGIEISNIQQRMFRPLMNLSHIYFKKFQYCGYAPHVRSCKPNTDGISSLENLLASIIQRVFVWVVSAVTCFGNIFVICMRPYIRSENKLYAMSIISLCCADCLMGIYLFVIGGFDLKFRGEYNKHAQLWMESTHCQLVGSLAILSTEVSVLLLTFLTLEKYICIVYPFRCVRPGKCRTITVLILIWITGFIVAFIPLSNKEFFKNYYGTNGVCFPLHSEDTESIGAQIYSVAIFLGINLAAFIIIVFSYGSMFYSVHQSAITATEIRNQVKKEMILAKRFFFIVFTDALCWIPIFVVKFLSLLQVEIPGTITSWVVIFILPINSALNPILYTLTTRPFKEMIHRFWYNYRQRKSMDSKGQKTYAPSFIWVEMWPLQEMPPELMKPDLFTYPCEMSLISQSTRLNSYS
Procedure: The ability of the relaxin-2 B chain peptide derivatives generated in Example 1 to stimulate cAMP response was also evaluated, using a cAMP reporter gene assay as described previously (Scott et al., 2006, J Biol Chem. 281, 34942-34954). HEK-293T cells co-transfected with either RXFP1 or RXFP2, or 7BP cells, and a pCRE β-galactosidase reporter plasmid were plated in 96-well plates. After 24 hours, the co-transfected cells were incubated with increasing concentrations of peptides in parallel to 10 nM of H2 relaxin or INSL3 for RXFP1- or RXFP2-transfected cells respectively. The amount of cAMP-driven β-galactosidase expression in each well was assessed with a colorimetric assay measuring absorbance at 570 nm on a microplate spectrophotometer. Ligand-induced cAMP stimulation was expressed as a percentage of maximal response of H2 relaxin or INSL3 for RXFP1 and RXFP2 cells respectively. Each data point was measured in triplicate and each experiment conducted independently at least three separate times. Statistical differences in pEC50 values were analyzed using one-way ANOVA coupled to Newman Keul's multiple comparison test for multiple group comparisons in GraphPad Prism 6.

RXFP1 [2] = target: T1, RXFP1; experiment: Eu-labelled H2 relaxin competition binding, whole HEK-293T cells stably transfected with RXFP1; conditions: HEK-293T cells stably transfected with RXFP1; competition with Eu-labelled H2 relaxin; mean ± S.E; n ≥ 3; read-out: RXFP1 Eu-H2 pKi (converted)
Procedure: Human embryonic kidney (HEK-293T) cells stably transfected with RXFP1 were cultured in RPMI 1640 medium supplemented with 10% fetal calf serum, 100 μg/ml penicillin, 100 μg/ml streptomycin and 2 mM L-glutamine and plated into 96-well pre-coated with poly-L-lysine for whole cell binding assays. Competition binding experiments were conducted with Eu^3+-labelled H2 relaxin (as per Shabanpoor et al., 2012, Biochem Biophys Res Commun. 420, 253-256) in the absence or presence of increasing concentrations of unlabelled relaxin-2 B chain derivatives. Nonspecific binding was determined with an excess of unlabelled peptides (500 nM H2 relaxin). Fluorescent measurements were recorded at an excitation wavelength of 340 nm and emission of 614 nm on a Victor plate reader (Perkin-Elmer Inc.). […] Statistical differences in pIC50 values were analyzed using one-way analysis of variance coupled to Newman Keul's multiple comparison test for multiple group comparisons in GraphPad Prism 6.

[3] = target: T2, fusion protein comprising the extracellular domain of RXFP1 and the transmembrane domain of CD8 (7BP cells) (Homo sapiens, UniProt Q9HBX9); experiment: Eu-labelled H2 relaxin competition binding to 7BP cells; conditions: 7BP cells; lower affinity than H2 relaxin; FIG. 2B
T2 construct: the extracellular domain of RXFP1 and the transmembrane domain of CD8; expressed in transfected cells
T2 sequence (Q9HBX9 1-409 limits assumed): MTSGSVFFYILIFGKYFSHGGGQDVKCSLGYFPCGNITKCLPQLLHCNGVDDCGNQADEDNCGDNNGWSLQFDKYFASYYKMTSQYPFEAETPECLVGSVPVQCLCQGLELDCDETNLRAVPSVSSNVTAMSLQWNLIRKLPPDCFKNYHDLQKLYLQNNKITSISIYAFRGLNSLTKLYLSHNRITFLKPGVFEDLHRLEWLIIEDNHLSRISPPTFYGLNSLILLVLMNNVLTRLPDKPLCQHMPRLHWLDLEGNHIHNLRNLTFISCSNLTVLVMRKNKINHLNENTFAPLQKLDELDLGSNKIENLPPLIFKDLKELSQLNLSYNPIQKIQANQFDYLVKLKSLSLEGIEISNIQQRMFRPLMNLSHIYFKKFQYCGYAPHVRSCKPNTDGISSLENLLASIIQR

Compound	EC50 (RXFP1 [1]) [µM]	Ki (RXFP1 [2]) [µM]	Binding to 7BP cells (in words) [3]
CC[C@H](C)[C@H](NC(=O)[C@H](C)NC(=O)[C@@H](NC(=O)[C@H](CCC(N)=O)NC(=O)[C@H](C)NC(=O)[C@H](CCCNC(=N)N)NC(=O)[C@@H](NC(=O)[C@H](CC(C)C)NC(=O)[C@H](CCC(=O)O)NC(=O)[C@H](CCCNC(=N)N)NC(=O)CNC(=O)[C@H](CO)NC(=O)[C@H](CC(C)C)NC(=O)[C@H](CCCCN)NC(=O)[C@@H](NC(=O)[C@@H](NC(=O)[C@H](CCC(=O)O)NC(=O)[C@H](CCC(=O)O)NC(=O)[C@H](CCSC)NC(=O)[C@H](Cc1c[nH]c2ccccc12)NC(=O)[C@H](CO)NC(=O)[C@@H](N)CC(=O)O)C(C)C)[C@@H](C)CC)C(C)C)[C@@H](C)CC)C(=O)N[C@@H](CO)C(=O)NCC(=O)N[C@@H](CCSC)C(=O)N[C@@H](CO)C(=O)N[C@H](C(=O)N[C@@H](Cc1c[nH]c2ccccc12)C(=O)N[C@@H](CO)C(=O)N[C@@H](CCCCN)C(=O)N[C@@H](CCCNC(=N)N)C(=O)N[C@@H](CO)C(=O)N[C@@H](CC(C)C)C(N)=O)[C@@H](C)O [B1-33 C11.23S] (H-DSWMEEVIKLSGRELVRAQIAISGMSTWSKRSL-NH2)	7.94	4.68	–
CC[C@H](C)[C@H](NC(=O)[C@H](C)NC(=O)[C@@H](NC(=O)[C@H](CCC(N)=O)NC(=O)[C@H](C)NC(=O)[C@H](CCCNC(=N)N)NC(=O)[C@@H](NC(=O)[C@H](CC(C)C)NC(=O)[C@H](CCC(=O)O)NC(=O)[C@H](CCCNC(=N)N)NC(=O)CNC(=O)[C@H](CO)NC(=O)[C@H](CC(C)C)NC(=O)[C@H](CCCCN)NC(=O)[C@@H](NC(=O)[C@@H](N)C(C)C)[C@@H](C)CC)C(C)C)[C@@H](C)CC)C(=O)N[C@@H](CO)C(=O)NCC(=O)N[C@@H](CCSC)C(=O)N[C@@H](CO)C(=O)N[C@H](C(=O)N[C@@H](Cc1c[nH]c2ccccc12)C(=O)N[C@@H](CO)C(N)=O)[C@@H](C)O [B7-29 C11.23S] (H-VIKLSGRELVRAQIAISGMSTWS-NH2; N-terminus assumed)	> 10	> 10	–
CC[C@H](C)[C@H](NC(=O)[C@H](C)NC(=O)[C@@H](NC(=O)[C@H](CCC(N)=O)NC(=O)[C@H](C)NC(=O)[C@H](CCCCNC(=N)N)NC(=O)[C@@H](NC(=O)[C@H](CC(C)C)NC(=O)[C@H](CCC(=O)O)NC(=O)[C@H](CCCNC(=N)N)NC(=O)CNC(=O)[C@H](CO)NC(=O)[C@H](CC(C)C)NC(=O)[C@H](CCCCN)NC(=O)[C@@H](NC(=O)[C@@H](N)C(C)C)[C@@H](C)CC)C(C)C)[C@@H](C)CC)C(=O)N[C@@H](CO)C(=O)NCC(=O)N[C@@H](CCSC)C(=O)N[C@@H](CO)C(=O)N[C@H](C(=O)N[C@@H](Cc1c[nH]c2ccccc12)C(=O)N[C@@H](CO)C(=O)N[C@@H](CCCCN)C(=O)N[C@@H](CCCNC(=N)N)C(=O)N[C@@H](CO)C(=O)N[C@@H](CC(C)C)C(N)=O)[C@@H](C)O [B7-33 C11.23S R17HR] (H-VIKLSGRELV[hArg]AQIAISGMSTWSKRSL-NH2)	> 10	0.302	–
CC[C@H](C)[C@H](NC(=O)[C@H](C)NC(=O)[C@@H](NC(=O)[C@H](CCC(N)=O)NC(=O)[C@H](C)NC(=O)[C@H](CCCCN)NC(=O)[C@@H](NC(=O)[C@H](CC(C)C)NC(=O)[C@H](CCC(=O)O)NC(=O)[C@H](CCCNC(=N)N)NC(=O)CNC(=O)[C@H](CO)NC(=O)[C@H](CC(C)C)NC(=O)[C@H](CCCCN)NC(=O)[C@@H](NC(=O)[C@@H](N)C(C)C)[C@@H](C)CC)C(C)C)[C@@H](C)CC)C(=O)N[C@@H](CO)C(=O)NCC(=O)N[C@@H](CCSC)C(=O)N[C@@H](CO)C(=O)N[C@H](C(=O)N[C@@H](Cc1c[nH]c2ccccc12)C(=O)N[C@@H](CO)C(=O)N[C@@H](CCCCN)C(=O)N[C@@H](CCCNC(=N)N)C(=O)N[C@@H](CO)C(=O)N[C@@H](CC(C)C)C(N)=O)[C@@H](C)O [B7-33 C11.23S R17K] (H-VIKLSGRELVKAQIAISGMSTWSKRSL-NH2; N-terminus assumed)	> 10	> 10	–
CC[C@H](C)[C@H](NC(=O)[C@H](C)NC(=O)[C@@H](NC(=O)[C@H](CCC(N)=O)NC(=O)[C@H](C)NC(=O)[C@H](CCNC(=N)N)NC(=O)[C@@H](NC(=O)[C@H](CC(C)C)NC(=O)[C@H](CCC(=O)O)NC(=O)[C@H](CCCNC(=N)N)NC(=O)CNC(=O)[C@H](CO)NC(=O)[C@H](CC(C)C)NC(=O)[C@H](CCCCN)NC(=O)[C@@H](NC(=O)[C@@H](N)C(C)C)[C@@H](C)CC)C(C)C)[C@@H](C)CC)C(=O)N[C@@H](CO)C(=O)NCC(=O)N[C@@H](CCSC)C(=O)N[C@@H](CO)C(=O)N[C@H](C(=O)N[C@@H](Cc1c[nH]c2ccccc12)C(=O)N[C@@H](CO)C(=O)N[C@@H](CCCCN)C(=O)N[C@@H](CCCNC(=N)N)C(=O)N[C@@H](CO)C(=O)N[C@@H](CC(C)C)C(N)=O)[C@@H](C)O [B7-33 C11.23S R17NR] (H-VIKLSGRELV[Agb]AQIAISGMSTWSKRSL-NH2)	1.55	> 10	–

Second part, the compound after the results:

EC50 (RXFP1 [1]) [µM]	Ki (RXFP1 [2]) [µM]	Binding to 7BP cells (in words) [3]	Compound
> 10	> 10	–	CC[C@H](C)[C@H](NC(=O)[C@H](C)NC(=O)[C@H](C)NC(=O)[C@H](CCC(N)=O)NC(=O)[C@H](C)NC(=O)[C@H](CCCNC(=N)N)NC(=O)[C@@H](NC(=O)[C@H](CC(C)C)NC(=O)[C@H](CCC(=O)O)NC(=O)[C@H](CCCNC(=N)N)NC(=O)CNC(=O)[C@H](CO)NC(=O)[C@H](CC(C)C)NC(=O)[C@H](CCCCN)NC(=O)[C@@H](NC(=O)[C@@H](NC(C)=O)C(C)C)[C@@H](C)CC)C(C)C)C(=O)N[C@@H](CO)C(=O)NCC(=O)N[C@@H](CCSC)C(=O)N[C@@H](CO)C(=O)N[C@H](C(=O)N[C@@H](Cc1c[nH]c2ccccc12)C(=O)N[C@@H](CO)C(=O)N[C@@H](CCCCN)C(=O)N[C@@H](CCCNC(=N)N)C(=O)N[C@@H](CO)C(=O)N[C@@H](CC(C)C)C(N)=O)[C@@H](C)O [R20A (AcB7-33 C11.23S)] (Ac-VIKLSGRELVRAQAAISGMSTWSKRSL-NH2)
–	–	strongly bind to 7BP cells	VIKLCGRELVRAQIAICGMSTWSKRSL-NH2 [Native B7-33]
